≈ marks a conversion by molar mass, not a printed value.
Experiments:
[1] = Dissolution of gacyclidine base pellets in a continuous flow reactor, eluted with Ringer's solution containing hydrochloric acid; assay type: physicochemical; conditions: for pH of the eluted drug solution: 20 μL/hr, room temperature (23±2° C.)
Experimental: A drug chamber similar to the one illustrated in FIG. 5 was loaded with 11 pellets of gacyclidine base having a combined mass of 18 mg. This drug-loaded chamber was eluted at a flow rate of 20 μL/hr at room temperature (23±2° C.) using a MiniMed 508 syringe pump (available from Medtronics MiniMed of Northridge, Calif.). The syringe was loaded with 3 mL of Ringer's solution containing 0.05 to 3 mM hydrochloric acid. The eluted volume was collected in PTFE tubing attached to the pump drug capsule assembly, after a 3-D antibacterial filter. The pH of this solution was determined by use of a pH meter equipped with a Calomel electrode. Drug concentration was determined by HPLC.
The highest pH of the eluted drug solution (5.9) was obtained at 0.05 mM hydrochloric acid, and the lowest pH of the eluted drug solution (5.6) was obtained at 3 mM hydrochloric acid. These pH values indicate quantitative conversion of the hydrochloric acid to the drug salt and are consistent with the pH expected for solutions of the hydrochloride salt.

[2] = Stability of gacyclidine forms in the presence of water; assay type: physicochemical; conditions: body temperature / in the presence of water
Description: (§1) An advantage of using solid drug in an implanted device is, in at least some embodiments, the ability to store drug in the device using a smaller volume than might be required if a premixed (or other liquid) form of the drug were used. In some cases, this smaller volume enables implantation of a device containing enough drug to provide (when combined with an appropriate vehicle source) substantially continuous long term therapy. This long term therapy can be over a period of days, weeks, or months. In some cases, long term therapy may extend over several years. One example of a basic crystalline or solid amorphous drug suitable for use in methods according to some embodiments is gacyclidine. For example, it is estimated that 18 mg of solid gacyclidine eroded with an appropriate vehicle will deliver 100 μM drug over 4 years at a flow rate of 20 microliters per hour or less. […] Dissolution of the basic form of gacyclidine in water requires the presence of an acid (e.g., hydrochloric acid or lactic acid) to convert the basic form to the water-soluble acidic form. The concentration of gacyclidine in solution will therefore depend on the amount of acid available to convert the basic form to the acid form. […]

[3] = Water solubility of gacyclidine forms; assay type: physicochemical
Description: as §1

[4] = cited from earlier work
[5] = assay type: physicochemical; conditions: solid pellets exposed to a continuous stream of vehicle such as Ringer's solution
Experimental: Triamcinolone acetonide is commercially available as a crystalline solid with very low water solubility. If solid pellets of triamcinolone acetonide are exposed to a continuous stream of a vehicle, such as Ringer's solution, the expected concentration of extracted triamcinolone acetonide in solution should be 40 μM or less. A higher concentration of triamcinolone acetonide can be solubilized by including an amphipathic molecule in the vehicle. Such a pharmaceutically acceptable amphipathic molecule would be polysorbate 80 (e.g., TWEEN 80®). The concentration of triamcinolone acetonide solubilized can be increased above its water solubility, 40 μM, by adding the required amount of amphipathic molecule to the vehicle that will support the desired drug concentration. The invention is not limited to methods implemented through use of triamcinolone acetonide, Ringer's solution or polysorbate 80. Any sparingly soluble drug, pharmaceutically acceptable vehicle and pharmaceutically acceptable amphipathic molecule can be used.

Row | SMILES | correlation in gacyclidine concentration per hydrochloric acid concentration used for elution ([1]; 0.05 to 3 mM hydrochloric acid in Ringer's solution, drug concentration by HPLC, FIG. 27) | pH of the eluted drug solution ([1]; Ringer's solution with 0.05 mM hydrochloric acid, highest pH) | pH of the eluted drug solution ([1]; Ringer's solution with 3 mM hydrochloric acid, lowest pH) | intercept at zero concentration of hydrochloric acid (gacyclidine concentration) ([1]; linear fit of eluted gacyclidine concentration vs hydrochloric acid concentration, FIG. 27) | stability (in words) [2] | water solubility (in words) [3] | water solubility [4] | expected concentration of extracted triamcinolone acetonide in solution [5]
1 | CC1CCCCC1(c1cccs1)N1CCCCC1 (stereo not shown) [gacyclidine] | 0.976±0.049 | 5.9 | 5.6 | 0.0014 ± 0.0061 mM | much more stable than its acidic form | sparingly soluble in water | – | –
2 | C[C@H]1CCCC[C@@]1(c1cccs1)N1CCCCC1.Cl [hydrochloride salt of gacyclidine, gacyclidine hydrochloride] | – | – | – | – | unstable at body temperature | highly water soluble | – | –
3 | CC1(C)O[C@@H]2C[C@H]3[C@@H]4CCC5=CC(=O)C=C[C@]5(C)[C@@]4(F)[C@@H](O)C[C@]3(C)[C@]2(C(=O)CO)O1 [triamcinolone acetonide] | – | – | – | – | – | – | 40 µM (≈ 17.4 µg/mL) | ≤ 40 µM

— patent US20080152694A1, “Devices, Systems and Methods for Ophthalmic Drug Delivery” (priority 2006, published 2008)
